Article PMC7408964, “Efficient Therapeutic Delivery by a Novel Cell-Penetrating Peptide Derived from Acinus” (Cancers, 2020)
Where no end group is shown, it is not given here.

How the values were obtained:
HUT78 Sézary cells = assay: Cell viability, MTT assay, HUT78 cells (with or without cell death inhibitors); assay type: cell-based; conditions: 20 h; for effect of pan-caspase inhibitor zVAD-fmk on peptide-induced cytotoxicity: increasing peptide concentrations, 50 μM zVAD-fmk, MTT, n = 3
Procedure: (§3) Cells survival was assessed with the CellTiter 96® Aqueous One Solution Cell Proliferation Assay kit (Promega, Madison, WI, USA).

[1] = system: non-malignant CD4+ T-cells, CD3+CD4+Vβ− cells; assay: Ex vivo cell death in Sézary patients' PBMC, 7-AAD flow cytometry, non-malignant CD4+ T-cells; assay type: cell-based, human; conditions: increasing concentrations, 4 h, 37 °C, PBMC of three patients
Text: (§1) SS diagnosis was established on recognized international clinical, histological, and biological criteria. Blood from SS patients with more than 90% of malignant CD4^+ T cells (identified by their TCR-Vβ rearrangement) was collected for the present study, which was approved by the institutional ethics committee (Saint Louis Hospital, Paris. Protocol no. 2011-oct.12735). Peripheral blood mononuclear cells (PBMC) were isolated from heparinized venous blood by density gradient centrifugation over lymphocytes separating medium (LSM; PAA Laboratories, Les Mureaux, France). The Sézary cell line HUT78 was amplified as previously described and cultured in RPMI 1640 supplemented with 2 mM L-glutamine, 1% penicillin-streptomycin (Invitrogen) and 10% heat-inactivated fetal calf serum (Life Technologies). All other cell lines were cultured in DMEM supplemented with 2 mM L-glutamine, 1% penicillin-streptomycin (Invitrogen) and 10% heat-inactivated fetal calf serum (Life Technologies).
(§2) PBMC exposed or not to RT33 or RT33 DR were processed for flow cytometry to assess cell death. Cells were labelled with a mix of anti-TCR-Vβ-FITC, -CD3-PE, and -CD4-PE-Cy7 mAbs (Beckman Coulter). Detection of apoptotic cells was performed using 7 AAD (BD Biosciences). Cells were analyzed on a CytoFlex cytometer (Beckman Coulter) and data treated with FlowJo software.

non T-cells, CD3− cells = assay: Ex vivo cell death in Sézary patients' PBMC, 7-AAD flow cytometry, non T-cells; assay type: cell-based, human; conditions: increasing concentrations, 4 h, 37 °C, PBMC of three patients
Text: as §1, §2

[2] = system: normal (HaCat, MRC-5) cells; assay: Cell viability, MTT assay, normal cells; assay type: cell-based; conditions: increasing concentrations, 20 h, n = 3
Procedure: as §3

[3] = system: HUT78 Sézary cells xenograft; assay: Sub-cutaneous xenograft mouse model for the Sézary syndrome; assay type: in vivo, NOD/SCID gamma (NSG) mice; conditions: 5 mg/kg daily i.p.
Text: Animal experiments were approved by The University Board Ethics Committee for Experimental Animal Studies (#2303.01). Xenograft tumors were obtained by subcutaneous injection of 10^6 HUT78 cells in the right flank of 8-week-old female NOD-SCID-gamma (NSG) mice, bred and housed under pathogen-free conditions at our animal facility (IUH, Saint Louis Hospital, Paris, France). Treatment started after randomization when tumors were visible and consisted of daily intraperitoneal (i.p.) injection of normal saline or RT33 or RT33 DR in normal saline (n = 5 per group). Tumor volume was measured every other day and calculated as: long axis × short axis^2 × 0.5. Animals were euthanized after 21 days of treatment or when tumor size reached the ethical end point and visceral organs were excised for a gross pathological examination. Tumors were fixed in 4% neutral buffered formalin and embedded in paraffin. Sections (4 µm) were stained with hematoxylin-eosin (H&E) and subjected to microscopic analysis and image recording. Histological analysis was performed at the HistIM facility of Cochin Institute (Paris, France). Slides were imaged using a Lamina multilabel slide scanner (Perkin Elmer).

AAC-11 specific portion: peptide comprising AAC-11 residues 377 to 399, without CPP (LQYFARGLQVYIRQLRLALQGKT; UniProt Q9BZZ5 377-399, looked up, fragment) [reference compound]
cell viability, AAC-11 portion alone (HUT78 Sézary cells; 20 µM, MTT assay, n = 3 (Supplementary Figure S4)): nor the AAC-11 specific portion alone (Supplementary Figure S4) decreased cell viability

RSRSRDRRRK [hAP10]
cell death / viability of non-malignant CD4+ T-cells (7-AAD+) [1]: did not induce cell death | cell death / viability of non T-cells (7-AAD+) (non T-cells, CD3− cells): did not induce cell death

RSRSRDRRRKLQYFARGLQVYIRQLRLALQGKT [RT33]
cell viability of normal cells [2]: sparing the normal cells tested | effect of pan-caspase inhibitor zVAD-fmk on peptide-induced cytotoxicity (HUT78 Sézary cells): did not block | cell death / viability of non-malignant CD4+ T-cells (7-AAD+) [1]: neither peptide decreased cell viability | cell death / viability of non T-cells (7-AAD+) (non T-cells, CD3− cells): neither peptide decreased cell viability | clinical symptoms during the experimental period [3]: No obvious clinical symptoms

RSRSRRRRRK [hAP10DR]
cell death / viability of non-malignant CD4+ T-cells (7-AAD+) [1]: did not induce cell death | cell death / viability of non T-cells (7-AAD+) (non T-cells, CD3− cells): did not induce cell death

RSRSRRRRRKLQYFARGLQVYIRQLRLALQGKT [RT33DR]
cell viability of normal cells [2]: sparing the normal cells tested | effect of pan-caspase inhibitor zVAD-fmk on peptide-induced cytotoxicity (HUT78 Sézary cells): did not block | cell death / viability of non-malignant CD4+ T-cells (7-AAD+) [1]: neither peptide decreased cell viability | cell death / viability of non T-cells (7-AAD+) (non T-cells, CD3− cells): neither peptide decreased cell viability | clinical symptoms during the experimental period [3]: No obvious clinical symptoms
